Test results: US6197575A, “Vascularized perfused microtissue/micro-organ arrays” (Massachusetts Institute of Technology, priority 1999, dated 2001)

Key:
cells = settings: tethered to silicon substrates; cited from earlier work
P450 1A1 = assay: EROD assay (7-ethoxyresorufin O-dealkylation) in perfused bioreactor chip of hepatocytes and endothelial cells; type: cell-based, rat
Description: Bioreactor constructs using an assay that measures the activity of one representative P450 isozyme, cytochrome P450 1A1, was evaluated. This enzyme is present in all mammalian species and is highly inducible by polycyclic aromatic hydrocarbons as well as other agents. 7-Ethoxyresorufin is a selective substrate of rat P450 1A1 which catalyzes its de-ethylation to the highly fluorescent resorufin. Subsequent to P450 1A1 catalyzed de-ethylation, resorufin can be exported from the cell or undergo phase II conjugation. There are two possible phase II conjugation products resulting from the enzyme catalyzed addition of sulfate or glucoronic acid to the 7-hydroxyl group of resorufin. Thus, from this assay one can quantitatively determine the activity of P450 1A1 and the phase II conjugation enzymes. […]
The 7-ethoxyresorufin O-dealkylation (EROD) assay involved dissolving the substrate into the chemically defined media (final concentration of 10-20 μM) and perfusing it through the tissue array. The effluent was collected in sequential fractions which then were analyzed by fluorescence detection for the presence of resorufin. Total conversion within each fraction was determined by incubating an aliquot from the fraction with enzymes that hydrolyze the phase II conjugates of resorufin back to the free alcohol. […]

In the case of “Tethered EGF: epidermal growth factor (EGF) tethered to silicon substrates”, the “biological activity after tethering” value (cells) is listed as “retained full biological activity” and the stimulation of cells (cells) is listed as “stimulate cells in a dose-dependent manner”.
In the case of `O=c1cc(-c2ccccc2)oc2c1ccc1ccccc12` [naphthoflavone], the “enzyme activity (resorufin formation) in presence and after removal of inhibitor” value (P450 1A1; 20 μM inhibitor with 10 μM ethoxyresorufin, t=240-385 min) was “inhibited by the inclusion of a reversible inhibitor to the media and then recovered when the inhibitor was removed”.
For `Cc1ccc2cc3c(ccc4ccccc43)c3c2c1CC3` [3-methylcholanthrene], the “increase in absolute level of resorufin formation” value (P450 1A1; bioreactor treated for final 24 hours in static culture, attomoles resorufin formed per minute per hepatocyte) was “approximately five”.
